# Reference: ChEMBL document CHEMBL3046922, “Antioomycete activity of gamma-oxocrotonate fatty acids against P. infestans” (J Agric Food Chem, 2009)
# The source made the active and inactive calls. The rule behind the calls is not given here.
# Key:
# Phytophthora infestans [1] = test: Antioomycete activity against Phytophthora infestans isolate 208m2 infected potato plants assessed as decrease in fungal biomass at 10 uM applied on the abaxial leaf surface 2 hr prior to zoospore inoculation measured 3 days after fungal challenge by realtime PCR analysis; format: functional
# Phytophthora infestans [2] = test: Antioomycete activity against Phytophthora infestans isolate 208m2 infected potato plants assessed as decrease in fungal biomass at 100 uM applied on the abaxial leaf surface 2 hr prior to zoospore inoculation measured 3 days after fungal challenge by realtime PCR analysis; format: functional
# Solanum tuberosum = test: Phytotoxicity against Solanum tuberosum cv. Desiree (potato) leaves at 1000 uM; format: organism-based; conditions: in vivo
# Colletotrichum coccodes [3] = test: Fungicidal activity against Colletotrichum coccodes CBS 369.75 assessed as one-day-old mycelial growth inhibition at 0.01 uM measured every 24 hr by multiwell plate assay; format: functional, organism-based
# Phytophthora infestans [4] = test: Antioomycete activity against Phytophthora infestans isolate 208m2 assessed as inhibition of zoospore germination at 10 nM after 24 hr by light microscopy; format: functional, organism-based
# Phytophthora infestans [5] = test: Antioomycete activity against Phytophthora infestans isolate 208m2 expressing GFP assessed as mature (3-weeks-old) mycelial growth inhibition at 1 to 100 uM applied as a drop solution measured after 24 hr by fluorescence stereomicroscopic analysis; format: functional, organism-based
# Phytophthora infestans [6] = test: Antioomycete activity against Phytophthora infestans isolate 208m2 assessed as inhibition of zoospore germination at 3.7 uM after 24 hr by light microscopy; format: functional, organism-based
# Colletotrichum coccodes [7] = test: Fungicidal activity against Colletotrichum coccodes CBS 369.75 assessed as one-day-old mycelial growth inhibition at 100 uM measured every 24 hr by multiwell plate assay; format: functional, organism-based
# Phytophthora infestans [8] = test: Antioomycete activity against Phytophthora infestans isolate 208m2 assessed as lysis of zoospores at 100 uM after 24 hr by light microscopy; format: functional, organism-based
# Phytophthora infestans [9] = test: Antioomycete activity against Phytophthora infestans isolate 208m2 expressing GFP assessed as one-day-old mycelial growth inhibition at 1 mM by plate reader analysis; format: functional, organism-based
# Phytophthora infestans [10] = test: Antioomycete activity against Phytophthora infestans isolate 208m2 assessed as zoospore germtube length at 10 nM to 100 uM after 24 hr by light microscopy; format: functional, organism-based
# Phytophthora infestans [11] = test: Antioomycete activity against Phytophthora infestans isolate 208m2 assessed as inhibition of zoospore germination at 100 nM after 24 hr by light microscopy; format: functional; conditions: isolate 208m2, 24 h
# Phytophthora infestans [12] = test: Antioomycete activity against Phytophthora infestans isolate 208m2 assessed as zoospore germination at 1 uM after 24 hr by light microscopy; format: functional
# Colletotrichum coccodes [13] = test: Fungicidal activity against Colletotrichum coccodes CBS 369.75 assessed as one-day-old mycelial growth inhibition at 1 uM measured every 24 hr by multiwell plate assay; format: functional; conditions: CBS 369.75, 24 h, read-out: GI
smiles,measurement,setting,value
CCCCCCCCCCCCC(=O)/C=C/C(=O)[O-].[Na+],inhibition at 10 µM,Phytophthora infestans [1],80%
same,inhibition at 100 µM,Phytophthora infestans [2],95%
same,Activity,Solanum tuberosum,Non-toxic
CCCCCCCCCCCCC(=O)/C=C/C(=O)O [listing 1 of 2 here],growth inhibition (GI),Colletotrichum coccodes [3],Active
same,inhibition,Phytophthora infestans [4],Active
same,growth inhibition (GI),Phytophthora infestans [5],Active
same,inhibition,Phytophthora infestans [6],Active
same,growth inhibition (GI),Colletotrichum coccodes [7],Active
same,Activity,Phytophthora infestans [8],Active
same,growth inhibition (GI),Phytophthora infestans [9],Active
same,Activity,Phytophthora infestans [10],Active
CCCCCCCCCCCCC(=O)/C=C/C(=O)O [listing 2 of 2 here],inhibition at 0.1 µM,Phytophthora infestans [11],> 50%
same,Activity,Phytophthora infestans [12],<10%
same,inhibition of growth at 1 µM,Colletotrichum coccodes [13],1.5%
